Assay results: US20220144839A1, “INDOLE AHR INHIBITORS AND USES THEREOF” (Ikena Oncology, Inc., priority 2018, published 2022)

Biological target: T1, AHR (UniProt P35869)
T1 sequence (P35869 1-848): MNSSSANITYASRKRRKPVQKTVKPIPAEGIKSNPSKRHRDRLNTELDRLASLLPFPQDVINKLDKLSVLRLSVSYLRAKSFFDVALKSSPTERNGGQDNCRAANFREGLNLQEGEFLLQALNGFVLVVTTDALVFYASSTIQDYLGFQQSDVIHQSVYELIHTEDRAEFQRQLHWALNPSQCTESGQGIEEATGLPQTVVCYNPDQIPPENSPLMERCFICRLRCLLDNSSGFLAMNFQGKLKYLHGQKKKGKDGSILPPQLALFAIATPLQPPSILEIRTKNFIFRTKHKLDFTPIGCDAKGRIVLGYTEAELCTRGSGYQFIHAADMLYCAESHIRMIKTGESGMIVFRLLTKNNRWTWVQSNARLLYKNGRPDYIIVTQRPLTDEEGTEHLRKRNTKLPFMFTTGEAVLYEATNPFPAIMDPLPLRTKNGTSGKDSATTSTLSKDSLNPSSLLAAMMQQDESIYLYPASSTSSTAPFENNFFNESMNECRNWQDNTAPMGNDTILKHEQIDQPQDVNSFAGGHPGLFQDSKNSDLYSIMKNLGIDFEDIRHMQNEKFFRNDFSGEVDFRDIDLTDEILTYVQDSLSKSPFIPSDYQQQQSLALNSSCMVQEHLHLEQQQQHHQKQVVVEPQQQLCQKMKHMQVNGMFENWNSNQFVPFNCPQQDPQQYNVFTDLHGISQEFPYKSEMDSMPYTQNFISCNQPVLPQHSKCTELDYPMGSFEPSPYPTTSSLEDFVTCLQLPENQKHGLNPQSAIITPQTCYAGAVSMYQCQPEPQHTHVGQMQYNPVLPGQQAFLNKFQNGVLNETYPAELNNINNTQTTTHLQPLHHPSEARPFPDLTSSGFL
Experiment: DRE-Luciferase Reporter Assay (Alternate Method), Example 1B
Type: cell-based
Details: concentration which inhibits half of the luciferase activity induced by AHR activating ligand; DRE-luciferase reporter cell line
Experimental: AHR binds to Dioxin Responsive Elements (DRE) upstream of genes that it activates. One measure of AHR activity is activation of a reporter gene, such as luciferase, downstream of one or multiple DRE elements. Luciferase activity will reflect activation and inhibition of AHR in the cells expressing his reporter.
Murine Hepa1-6 or Hepa-1c1c7 or other murine cell line with a DRE-luciferase reporter either stably or transiently transfected were plated in media in plates (96-well, 384-well or other plates) and incubated overnight at 37° C. in a C02 incubator or compound and agonist were added at the time of plating. Likewise, human HepG2 or other human cell line with a DRE-luciferase reporter either stably or transiently transfected were plated in media in plates (96-well, 384-well or other plates) and incubated overnight at 37° C. in a C02 incubator or compound and agonist were added at the time of plating.
At the time that cells are plated or following incubation overnight, an AHR activating ligand, such as TCDD, kynurenine, ITE (2-(1H-indole-3-ylcarbonyl)-4-thiazolecarboxylic methyl ester), VAF347, BNF (beta-naphthoflavone), FICZ (6-formylindolo(3,2-b) carbazole or other AHR ligands, was added with or without AHR antagonist.
Cells were incubated for 4, 15 or 24 hours or another time point and then lysed for determination of luciferase activity as a read-out of the AHR activation or inhibition. Luciferase was measured with a commercial kit such as the Promega Luciferase kit or any kit or reagents that provide the luciferin substrate for measuring luciferase activity. The level of luciferase with only activating ligand added was the maximum signal while the luciferase with no ligand was the minimum signal. IC50 values were determined as the concentration which inhibits half of the luciferase activity.

IC50, 1000 to 1500 nM:
CC(C)c1cnn2c(N[C@H]3CCc4[nH]ncc4C3)nc(-c3cncc(F)c3)nc12 [Compound I-7b, 2-(5-fluoro-3-pyridyl)-8-isopropyl-N-[(5S)-4,5,6,7-tetrahydro-1H-indazol-5-yl]pyrazolo[1,5-a][1,3,5]triazin-4-amine]
CC(C)c1cnn2c(N[C@H]3CCc4[nH]c5cccnc5c4C3)nc(-c3cncc(F)c3)nc12 [Compound I-8a, (8S)—N-[2-(5-Fluoro-3-pyridyl)-8-isopropyl-pyrazolo[1,5-a][1,3,5]triazin-4-yl]-6,7,8,9-tetrahydro-5H-pyrido[3,2-b]indol-8-amine]
CC(C)c1cnn2c(N[C@@H]3CCc4[nH]c5cccnc5c4C3)nc(-c3cncc(F)c3)nc12 [Compound I-8b, (8R)—N-[2-(5-Fluoro-3-pyridyl)-8-isopropyl-pyrazolo[1,5-a][1,3,5]triazin-4-yl]-6,7,8,9-tetrahydro-5H-pyrido[3,2-b]indol-8-amine]
CC(C)c1cnn2c(N[C@@H]3CCc4[nH]c5ccccc5c4C3)nc(-n3cnc4ccccc43)nc12 [Compound I-12, (3R)—N-[2-(Benzimidazol-1-yl)-8-isopropyl-pyrazolo[1,5-a][1,3,5]triazin-4-yl]-2,3,4,9-tetrahydro-1H-carbazol-3-amine]
Cc1cnc2c(N[C@@H]3CCc4[nH]c5ccccc5c4C3)nc(-c3cncc(F)c3)nc2c1 [Compound I-14, (3R)—N-[2-(5-fluoro-3-pyridyl)-7-methyl-pyrido[3,2-d]pyrimidin-4-yl]-2,3,4,9-tetrahydro-1H-carbazol-3-amine]

IC50, 500 to 1000 nM:
CC(C)c1cnn2c(N[C@@H]3CCc4[nH]c5ccccc5c4C3)nc(C3CCOC3)nc12 (stereo partly drawn) [Compound I-17, (3R)—N-(8-isopropyl-2-tetrahydrofuran-3-yl-pyrazolo[1,5-a][1,3,5]triazin-4-yl)-2,3,4,9-tetrahydro-1H-carbazol-3-amine]

IC50, > 1500 nM:
CC(C)c1cnn2c(N[C@@H]3CCc4[nH]c5ccccc5c4C3)nc(-c3ccn(C)c(=O)c3)nc12 [Compound I-1, 4-[8-Isopropyl-4-[[(3R)-2,3,4,9-tetrahydro-1H-carbazol-3-yl]amino]pyrazolo[1,5-a][1,3,5]triazin-2-yl]-1-methyl-pyridin-2-one]
CC(C)c1cnn2c(N[C@@H]3CCc4[nH]c5ccccc5c4C3)nc(-c3ccc(N4CCOCC4)nc3)nc12 [Compound I-2, (3R)—N-[8-Isopropyl-2-(6-morpholino-3-pyridyl)pyrazolo[1,5-a][1,3,5]triazin-4-yl]-2,3,4,9-tetrahydro-1H-carbazol-3-amine]
COc1cncc(-c2nc(N[C@@H]3CCc4[nH]c5ccccc5c4C3)n3ncc(C(C)C)c3n2)c1 [Compound I-3, (3R)—N-[8-Isopropyl-2-(5-methoxy-3-pyridyl)pyrazolo[1,5-a][1,3,5]triazin-4-yl]-2,3,4,9-tetrahydro-1H-carbazol-3-amine]
CC(C)c1cnn2c(N[C@@H]3CCc4[nH]c5ccccc5c4C3)nc(-c3cncc(N(C)C)c3)nc12 [Compound I-5, (3R)—N-[2-[5-(Dimethylamino)-3-pyridyl]-8-isopropyl-pyrazolo[1,5-a][1,3,5]triazin-4-yl]-2,3,4,9-tetrahydro-1H-carbazol-3-amine]
CC(C)c1cnn2c(N[C@@H]3CCc4[nH]c5ccccc5c4C3)nc(-c3ccc(N(C)C)nc3)nc12 [Compound I-6, (3R)—N-[2-[6-(dimethylamino)-3-pyridyl]-8-isopropyl-pyrazolo[1,5-a][1,3,5]triazin-4-yl]-2,3,4,9-tetrahydro-1H-carbazol-3-amine]
CC(C)c1cnn2c(N[C@@H]3CCc4[nH]ncc4C3)nc(-c3cncc(F)c3)nc12 [Compound I-7a, 2-(5-fluoro-3-pyridyl)-8-isopropyl-N-[(5R)-4,5,6,7-tetrahydro-1H-indazol-5-yl]pyrazolo[1,5-a][1,3,5]triazin-4-amine]
CC(C)c1cnn2c(N[C@@H]3CCc4[nH]c5cnccc5c4C3)nc(-c3cncc(F)c3)nc12 [Compound I-13a, (6R)—N-[2-(5-fluoro-3-pyridyl)-8-isopropyl-pyrazolo[1,5-a][1,3,5]triazin-4-yl]-6,7,8,9-tetrahydro-5H-pyrido[3,4-b]indol-6-amine]
CC(C)c1cnn2c(N[C@H]3CCc4[nH]c5cnccc5c4C3)nc(-c3cncc(F)c3)nc12 [Compound I-13b, (6S)—N-[2-(5-fluoro-3-pyridyl)-8-isopropyl-pyrazolo[1,5-a][1,3,5]triazin-4-yl]-6,7,8,9-tetrahydro-5H-pyrido[3,4-b]indol-6-amine]
CC(C)c1cnn2c(N[C@@H]3CCc4[nH]c5ccccc5c4C3)nc([C@@H]3CCCOC3)nc12 [Compound I-15a, (3R)—N-(8-isopropyl-2-tetrahydropyran-3-yl-pyrazolo[1,5-a][1,3,5]triazin-4-yl)-2,3,4,9-tetrahydro-1H-carbazol-3-amine]
CC(C)c1cnn2c(N[C@@H]3CCc4[nH]c5ccccc5c4C3)nc([C@H]3CCCOC3)nc12 [Compound I-15b, (3R)—N-[8-isopropyl-2-[(3R)-tetrahydropyran-3-yl]pyrazolo[1,5-a][1,3,5]triazin-4-yl]-2,3,4,9-tetrahydro-1H-carbazol-3-amine]
CC(C)c1cnn2c(N[C@@H]3CCc4[nH]c5ccccc5c4C3)nc(-n3cncn3)nc12 [Compound I-16, (3R)—N-[8-Isopropyl-2-(1,2,4-triazol-1-yl)pyrazolo[1,5-a][1,3,5]triazin-4-yl]-2,3,4,9-tetrahydro-1H-carbazol-3-amine]
Cc1nccn1-c1nc(N[C@@H]2CCc3[nH]c4ccccc4c3C2)n2ncc(C(C)C)c2n1 [Compound I-19, (3R)—N-[8-Isopropyl-2-(2-methylimidazol-1-yl)pyrazolo[1,5-a][1,3,5]triazin-4-yl]-2,3,4,9-tetrahydro-1H-carbazol-3-amine]

IC50, < 500 nM:
NCc1cnn2c(N[C@@H]3CCc4[nH]c5ccccc5c4C3)nc(-c3cncc(F)c3)nc12 [Compound I-4, (3R)—N-[8-(Aminomethyl)-2-(5-fluoro-3-pyridyl)pyrazolo[1,5-a][1,3,5]triazin-4-yl]-2,3,4,9-tetrahydro-1H-carbazol-3-amine]
CC(C)(O)c1cnn2c(N[C@@H]3CCc4[nH]c5ccccc5c4C3)nc(-c3cncc(F)c3)nc12 [Compound I-9, 2-[2-(5-Fluoro-3-pyridyl)-4-[[(3R)-2,3,4,9-tetrahydro-1H-carbazol-3-yl]amino]pyrazolo[1,5-a][1,3,5]triazin-8-yl]propan-2-ol]
Fc1cncc(-c2nc(N[C@@H]3CCc4[nH]c5ccccc5c4C3)n3ncc(-c4cnn[nH]4)c3n2)c1 [Compound I-10, (3R)—N-[2-(5-Fluoro-3-pyridyl)-8-(1H-triazol-5-yl)pyrazolo[1,5-a][1,3,5]triazin-4-yl]-2,3,4,9-tetrahydro-1H-carbazol-3-amine]
C=C(C)c1cnn2c(N[C@@H]3CCc4[nH]c5ccccc5c4C3)nc(-c3cncc(F)c3)nc12 [Compound I-11, (3R)—N-[2-(5-Fluoro-3-pyridyl)-8-isopropenyl-pyrazolo[,5-a][1,3,5]triazin-4-yl]-2,3,4,9-tetrahydro-1H-carbazol-3-amine]
Fc1cncc(-c2nc(N[C@@H]3CCc4[nH]c5ccccc5c4C3)n3ncc(C4CCOC4)c3n2)c1 (stereo partly drawn) [Compound I-18, (3R)—N-[2-(5-fluoro-3-pyridyl)-8-tetrahydrofuran-3-yl-pyrazolo[1,5-a][1,3,5]triazin-4-yl]-2,3,4,9-tetrahydro-1H-carbazol-3-amine]
